The source of these data is patent US10766888B1, “HMOX1 inducers” (Mitobridge Inc., priority 2019, dated 2020).

Values after ≈ are worked out from the molar mass of the structure shown.

The target of one data set is hERG channel (Homo sapiens, UniProt Q12809). The experiment in a line: hERG manual patch clamp assay. Particulars: HEK 293 cells stably expressing hERG channel, pH 7.35, 10 μM compound. It counts as cell-based. The method, then: Cell Lines and Cell Culture
HEK 293 cell line stably expressing hERG channel (Cat # K1236) was purchased from Invitrogen. The cells were cultured in 85% DMEM, 10% dialyzed FBS, 0.1 mM NEAA, 25 mM HEPES, 100 U/mL Penicillin-Streptomycin and 5 μg/mL Blasticidin and 400 μg/mL Geneticin. Cells were split using TrypLE™ Express about three times a week, and maintained between ˜40% to ˜80% confluence. Before the assay, the cells were transferred onto the coverslips at 5×10^5 cells/per 6 cm cell culture dish and induced with doxycycline at 1 μg/mL for 48 hours.
• 1) External solution (in mM): 132 NaCl, 4 KCl, 3 CaCl2, 0.5 MgCl2, 11.1 glucose, and 10 HEPES (pH adjusted to 7.35 with NaOH) • 2) Internal solution (in mM): 140 KCl, 2 MgCl2, 10 EGTA, 10 HEPES and 5 MgATP (pH adjusted to 7.35 with KOH) • 3) hERG currents were tested in presence of 10 μM compound concentration with final concentration of DMSO of 0.1%. Experimental Procedure • 1) Removed the coverslip from the cell culture dish and placed it on the microscope stage in bath chamber. • 2) Located a desirable cell using the 10× objective. Located the tip of the electrode under the microscope using the 10× objective by focusing above the plane of the cells. Once the tip was in focus, advanced the electrode downwards towards the cell using the coarse controls of the manipulator, while simultaneously moving the objective to keep the tip in focus. • 3) When directly over the cell, switched to the 40× objective and used the fine controls of the manipulator to approach the surface of the cell in small steps. • 4) Applied gentle suction through the side-port of the electrode holder to form a gigaohm seal. • 5) Used the Cfast to remove the capacity current that was in coincidence with the voltage step. Obtained the whole cell configuration by applying repetitive, brief, strong suction until the membrane patch ruptured. • 6) Set membrane potential to −60 mV at this point to ensure that hERG channels were not • open. The spikes of capacity current should then be cancelled using the Cslow on the amplifier. 7) Set holding potential to −90 mV for 500 ms; recorded current at 50 kHz and filtered at 10 kHz. Leaking current was tested at −80 mV for 500 ms. • 8) The hERG current was elicited by depolarizing at +30 mV for 4.8 seconds and then the voltage was taken back to −50 mV for 5.2 seconds to remove the inactivation and observe the deactivating tail current. The maximum amount of tail current size was used to determine hERG current amplitude. • 9) Recorded current for 120 seconds to assess the current stability. Only stable cells with recording parameters above threshold were applied for the compound administrations. • 10) Firstly vehicle control was applied to the cells to establish the baseline. […] In order to ensure the good performance of cultured cells and operations, the positive control, Dofetilide, with 5 dose concentration was also used to test the same batch of cells. Data Analysis
The following criteria were used to determine data acceptability. • 1) Initial seal resistance >1 GΩ; • 2) Leak currents <50% of the control peak tail currents at any time; • 3) The peak tail amplitude >250 pA; • 4) Membrane resistance Rm>500 MΩ; • 5) Access resistance (Ra)<10 MΩ; • 6) Apparent run-down of peak current <2.5% per min.
Data that met the above criteria for hERG current quality were further analyzed as the following steps. • 1) Percent hERG current inhibition was calculated using the following equation. • Note: PatchMaster or Clampfit software was used to extract the peak current from the original data.
[formula] • 2) The dose response curve of test compounds was plotted with percentage of hERG current inhibition against the concentration of test compounds using Graphpad Prism 6.0, and fit to a sigmoid dose-response curve with a variable slope.
(In general: The hERG channel carries a current that helps repolarise heart muscle cells.)

Another data set in a line: Kinetic solubility. The data set is classed as physicochemical. As to conditions: Dulbecco's phosphate buffer saline (DPBS), aqueous buffer, kinetic from dmso stock, DPBS pH 7.4, 25° C., 200 μM test compound. In a few lines:
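Compound from 10 mM DMSO stock diluted to 200 μM final in DPBS pH 7.4 and, separately, in DMSO, in duplicate. Shaken 16 h at 25 °C, then centrifuged 20 min at 25 °C. Supernatant analysed by HPLC.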

For data set [1], the system named is Human Heme Oxygenase-1 (HMOX-1). The experiment in a line: ELISA assay to measure human heme oxygenase-1 (HMOX-1) in HepG2 lysate. Particulars: for EC50: human HMOX1 protein level in HepG2 lysate, * = average of 2 or more EC50 determinations, NA = Not Active, read-out: EC50. It counts as cell-based. In a few lines:
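Treated HepG2 cells were lysed in PBS with 0.5% Triton X100, 1 mM EDTA and protease inhibitors, and lysates were diluted 1:20. HO-1 was measured by sandwich ELISA (biotinylated detection antibody, streptavidin-HRP, chemiluminescence) at room temperature against a standard curve from 20 ng/ml. EC50 and fold change were expressed relative to DMSO control.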
On the technique in general: In an ELISA, binding on a coated surface is turned into a signal by an enzyme label.

hERG channel, sequence (Q12809 whole entry): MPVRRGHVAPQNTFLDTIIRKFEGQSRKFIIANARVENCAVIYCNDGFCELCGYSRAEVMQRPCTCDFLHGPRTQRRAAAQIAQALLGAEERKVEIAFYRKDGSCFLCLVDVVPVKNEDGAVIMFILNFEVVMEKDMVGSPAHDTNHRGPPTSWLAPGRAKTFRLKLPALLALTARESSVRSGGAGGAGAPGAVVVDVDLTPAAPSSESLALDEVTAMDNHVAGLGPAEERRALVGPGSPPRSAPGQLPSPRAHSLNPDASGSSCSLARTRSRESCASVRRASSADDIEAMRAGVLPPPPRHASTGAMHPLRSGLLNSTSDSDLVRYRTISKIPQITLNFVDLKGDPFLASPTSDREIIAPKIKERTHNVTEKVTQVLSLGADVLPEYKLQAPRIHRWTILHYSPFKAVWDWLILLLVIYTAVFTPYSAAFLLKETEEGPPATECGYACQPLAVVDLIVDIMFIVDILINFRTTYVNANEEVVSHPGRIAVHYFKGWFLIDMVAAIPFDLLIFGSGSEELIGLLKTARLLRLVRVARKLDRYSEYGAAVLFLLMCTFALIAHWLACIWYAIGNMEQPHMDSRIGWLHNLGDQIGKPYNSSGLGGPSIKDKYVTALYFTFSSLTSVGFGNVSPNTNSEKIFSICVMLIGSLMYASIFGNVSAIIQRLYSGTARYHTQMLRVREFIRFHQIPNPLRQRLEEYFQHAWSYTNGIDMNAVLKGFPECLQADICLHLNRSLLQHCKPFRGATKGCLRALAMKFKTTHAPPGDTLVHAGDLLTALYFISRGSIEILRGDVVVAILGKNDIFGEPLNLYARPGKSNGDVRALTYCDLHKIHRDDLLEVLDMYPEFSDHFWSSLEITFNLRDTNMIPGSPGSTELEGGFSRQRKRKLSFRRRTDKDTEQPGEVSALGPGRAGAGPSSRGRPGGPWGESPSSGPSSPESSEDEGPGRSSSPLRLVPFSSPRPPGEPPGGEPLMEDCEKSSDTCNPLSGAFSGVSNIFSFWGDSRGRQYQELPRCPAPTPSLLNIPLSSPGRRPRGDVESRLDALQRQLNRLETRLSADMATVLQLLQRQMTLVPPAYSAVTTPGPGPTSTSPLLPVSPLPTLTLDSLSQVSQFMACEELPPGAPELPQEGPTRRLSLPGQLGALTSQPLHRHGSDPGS

Usually inhibition stands for the percentage by which the read-out fell short of the control. `CC1CCc2nc(Nc3nc4cc(C(=O)NCCOCCO)ccc4n3C)sc2C1` (centres unmarked) [Ex 7, N-(2-(2-hydroxyethoxy)ethyl)-1-methyl-2-((6-methyl-4,5,6,7-tetrahydrobenzo[d]thiazol-2-yl)amino)-1H-benzo[d]imidazole-5-carboxamide] registered an inhibition at 10 µM against hERG channel of 6%.

In general, solubility refers to how much of the substance goes into solution per volume. High values mean much dissolved substance, low ones little dissolved substance. Broadly, the EC50 is the concentration needed to bring the measured effect to its halfway point. In turn, `COCCNC(=O)c1ccc2c(c1)nc(Nc1nc3cc(OC(F)(F)F)ccc3[nH]1)n2C` [Example 14, N-(2-methoxyethyl)-1-methyl-2-((5-(trifluoromethoxy)-1H-benzo[d]imidazol-2-yl)amino)-1H-benzo[d]imidazole-5-carboxamide] displayed a solubility at 16 h in “Kinetic solubility” of 4.2 µM (≈ 1.88 µg/mL). Also, at 10 µM the inhibition on hERG channel was 87%. Further, the “Maximum Fold induction” value in data set [1] (fold change of human HMOX1 protein level relative to DMSO control, HepG2) came to 6.25 fold. Moreover, the EC50 in data set [1] came out at 2.3 µM.

In the case of `Cn1c(Nc2nc3ccccc3o2)nc2cc(C(=O)NCCO)ccc21` [Example 16, 2-(benzo[d]oxazol-2-ylamino)-N-(2-hydroxyethyl)-1-methyl-1H-benzo[d]imidazole-5-carboxamide], the solubility at 16 h in “Kinetic solubility” was 11.7 µM (≈ 4.11 µg/mL). Moreover, at hERG channel, the inhibition at 10 µM stood at 35%. Also, the EC50 in data set [1] amounted to 0.7 µM.

Consider `Cl.Cn1c(Nc2nc3ccccc3o2)nc2cc(C(=O)NCCN)ccc21` [Example 18, N-(2-aminoethyl)-2-(benzo[d]oxazol-2-ylamino)-1-methyl-1H-benzo[d]imidazole-5-carboxamide hydrochloride], for which, in “Kinetic solubility”, the solubility at 16 h was 12.4 µM. The molecule further yielded an inhibition at 10 µM against hERG channel of 12%. Besides, the EC50 in data set [1] amounted to 0.7 µM.

On hERG channel, `CN(C)CC(=O)NCCNC(=O)c1ccc2c(c1)nc(Nc1nc3ccccc3o1)n2C` [Example 19, 2-(benzo[d]oxazol-2-ylamino)-N-(2-(2-(dimethylamino)acetamido)ethyl)-1-methyl-1H-benzo[d]imidazole-5-carboxamide] came in with an inhibition at 10 µM of 29%. Moreover, in data set [1], the EC50 was 1.8 µM.

`Cn1c(Nc2nc3ccccc3o2)nc2cc(C(=O)NCCN3CCOCC3)ccc21` [Example 20, 2-(benzo[d]oxazol-2-ylamino)-1-methyl-N-(2-morpholinoethyl)-1H-benzo[d]imidazole-5-carboxamide] had a solubility at 16 h in “Kinetic solubility” of 7.3 µM (≈ 3.07 µg/mL). In addition, the inhibition at 10 µM against hERG channel was 59%. Further, the EC50 in data set [1] came out at 1 µM.

On to `CC(O)CNC(=O)c1ccc2c(c1)nc(Nc1nc3ccccc3o1)n2C` (centres unmarked) [Example 23, 2-(benzo[d]oxazol-2-ylamino)-N-(2-hydroxypropyl)-1-methyl-1H-benzo[d]imidazole-5-carboxamide], for which, in “Kinetic solubility”, the solubility at 16 h is more than 20 µM. Further, 10 µM produced 24% inhibition against hERG channel. Besides, in data set [1], the EC50 came out at 2.1 µM.

The molecule `CC(O)COCCNC(=O)c1ccc2c(c1)nc(Nc1nc3ccccc3o1)n2C` (centres unmarked) [Example 25] had a solubility at 16 h in the data set “Kinetic solubility” of 6.1 µM (≈ 2.5 µg/mL). At hERG channel, the inhibition at 10 µM was 8%. The EC50 in data set [1] was 2.2 µM.

`Cn1c(Nc2nc3ccccc3o2)nc2cc(C(=O)NCC3(O)COC3)ccc21` [Example 26, 2-(benzo[d]oxazol-2-ylamino)-N-((3-hydroxyoxetan-3-yl)methyl)-1-methyl-1H-benzo[d]imidazole-5-carboxamide]: the solubility at 16 h in the data set “Kinetic solubility” stood at 8.6 µM (≈ 3.38 µg/mL). At hERG channel, this molecule yielded an inhibition at 10 µM of 18%. Besides, the EC50 in data set [1] came to 2 µM.

Take `Cn1c(Nc2nc3cc(F)ccc3[nH]2)nc2cc(C(=O)O)ccc21` [Example 73, 2-((5-fluoro-1H-benzo[d]imidazol-2-yl)amino)-1-methyl-1H-benzo[d]imidazole-5-carboxylic acid]: on hERG channel, the inhibition at 10 µM turned out to be 5%. Further, the EC50 in data set [1] worked out at 2.9 µM.

`CN(C)CCONC(=O)c1ccc2c(c1)nc(Nc1nc3ccccc3o1)n2C` [Example 123, 2-(benzo[d]oxazol-2-ylamino)-N-(2-(dimethylamino)ethoxy)-1-methyl-1H-benzo[d]imidazole-5-carboxamide]: the solubility at 16 h in “Kinetic solubility” came out at 10.5 µM (≈ 4.14 µg/mL). This molecule also came in with an inhibition at 10 µM against hERG channel of 54%.
